Laboratory results from US4307189A, “Method for the quantitative determination of terminal deoxynucleotidyl transferase in biological samples” (priority 1980, dated 1981).
Read-outs that look alike come from different tables or passages of the source.

What was measured:
[1] = tested on: other cellular DNA polymerases; conditions: 100 mM ATP added (Mertelsmann); cited from earlier work
TdT = conditions: cited from earlier work
E. coli DNA polymerase I = E. coli DNA polymerase I (Escherichia coli, UniProt P00582); assay: Incorporation of tritium labeled nucleotide into acid insoluble polydeoxynucleotide by purified E. coli DNA polymerase I; format: biochemical; conditions: purified E. coli DNA polymerase I sample, 90 minute incubation period, tritium labeled substrate
Method: (§1) To illustrate that suitable modified deoxynucleoside triphosphates and/or single stranded oligodeoxynucleotides which have impaired basing pairing abilities, as described above, are specific to TdT, tritium labeled ethenodeoxyadenosine triphosphate (etheno dATP) and tritium labeled deoxyadenosine triphosphate (dATP) were appropriately incubated with a purified TdT enzyme sample and with a purified E. coli DNA polymerase I sample.

[2] = tested on: Terminal Deoxynucleotidyl Transferase (TdT); assay: Incorporation of tritium labeled nucleotide into acid insoluble polydeoxynucleotides by purified TdT; format: biochemical; conditions: purified TdT enzyme sample, 90 minute incubation period, tritium labeled substrate
Method: as §1

[3] = tested on: polynucleotide phophorylase; conditions: cited from earlier work

Chain of E. coli DNA polymerase I (P00582 whole entry): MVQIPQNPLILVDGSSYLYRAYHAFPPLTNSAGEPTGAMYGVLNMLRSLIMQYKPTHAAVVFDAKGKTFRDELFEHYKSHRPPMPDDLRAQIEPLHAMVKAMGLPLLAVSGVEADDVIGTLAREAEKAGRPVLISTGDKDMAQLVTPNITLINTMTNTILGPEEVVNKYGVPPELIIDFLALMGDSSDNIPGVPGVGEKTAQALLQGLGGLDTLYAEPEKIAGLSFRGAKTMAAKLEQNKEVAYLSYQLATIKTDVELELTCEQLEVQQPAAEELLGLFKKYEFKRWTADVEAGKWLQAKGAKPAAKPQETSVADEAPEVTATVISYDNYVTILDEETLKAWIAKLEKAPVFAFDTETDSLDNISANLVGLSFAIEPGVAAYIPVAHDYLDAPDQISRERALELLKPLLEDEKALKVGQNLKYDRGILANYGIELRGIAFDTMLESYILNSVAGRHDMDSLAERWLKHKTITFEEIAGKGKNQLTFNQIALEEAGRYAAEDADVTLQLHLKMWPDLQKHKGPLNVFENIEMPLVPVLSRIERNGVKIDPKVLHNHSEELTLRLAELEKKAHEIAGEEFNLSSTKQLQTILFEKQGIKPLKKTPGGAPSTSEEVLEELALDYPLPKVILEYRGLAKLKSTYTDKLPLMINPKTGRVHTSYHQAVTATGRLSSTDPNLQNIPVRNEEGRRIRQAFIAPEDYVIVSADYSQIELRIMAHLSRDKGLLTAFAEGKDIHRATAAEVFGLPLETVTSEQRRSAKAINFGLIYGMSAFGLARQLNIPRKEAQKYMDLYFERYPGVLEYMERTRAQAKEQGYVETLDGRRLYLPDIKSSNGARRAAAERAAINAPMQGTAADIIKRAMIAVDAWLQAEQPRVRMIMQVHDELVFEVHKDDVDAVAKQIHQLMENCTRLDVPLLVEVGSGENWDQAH

Compound | incorporation into acid insoluble polydeoxynucleotide (E. coli DNA polymerase I) | incorporation into acid insoluble polydeoxynucleotides [2] | also measured
Nc1ncnc2c1ncn2[C@@H]1O[C@H](COP(=O)(O)OP(=O)(O)OP(=O)(O)O)[C@@H](O)[C@H]1O [ATP, adenosine triphosphate] | – | – | effect on other cellular DNA polymerases [1]: without affecting other cellular DNA polymerases; inhibition of TdT activity (TdT; 100 mM ATP added (Mertelsmann)): specifically inhibits TdT
Nc1ncnc2c1ncn2[C@H]1C[C@H](O)[C@@H](COP(=O)(O)OP(=O)(O)OP(=O)(O)O)O1 [dATP, deoxyadenosine triphosphate] | normally and appreciably incorporated | progressive incorporation | –
6-dimethylaminoadenine | – | – | substrate for template independent RNA polymerase, polynucleotide phophorylase [3]: remains a substrate
O=P(O)(O)OP(=O)(O)OP(=O)(O)OC[C@H]1O[C@@H](n2cnc3c2ncn2ccnc32)C[C@@H]1O [etheno-dATP, 1,N^6 -ethenodeoxy-adenosine triphophate] | no detectable incorporation | progressive incorporation | –
CCN1C(=O)C=CC1=O [N-ethylmaleimide] | – | – | inhibition of TdT activity (TdT; 10% ethanol and 10 mM N-ethylmaleimide added (Coleman)): completely inhibit TdT activity
